As usually defined, the IC50 is the point on the concentration scale where inhibition reaches its midpoint.

SMILES strings stand for the structures.

This assay addresses T1, human SLC6A19 and TMEM27 (Homo sapiens, UniProt Q695T7).
T1 construct: expressed in transfected cells
T1 sequence (Q695T7 1-634): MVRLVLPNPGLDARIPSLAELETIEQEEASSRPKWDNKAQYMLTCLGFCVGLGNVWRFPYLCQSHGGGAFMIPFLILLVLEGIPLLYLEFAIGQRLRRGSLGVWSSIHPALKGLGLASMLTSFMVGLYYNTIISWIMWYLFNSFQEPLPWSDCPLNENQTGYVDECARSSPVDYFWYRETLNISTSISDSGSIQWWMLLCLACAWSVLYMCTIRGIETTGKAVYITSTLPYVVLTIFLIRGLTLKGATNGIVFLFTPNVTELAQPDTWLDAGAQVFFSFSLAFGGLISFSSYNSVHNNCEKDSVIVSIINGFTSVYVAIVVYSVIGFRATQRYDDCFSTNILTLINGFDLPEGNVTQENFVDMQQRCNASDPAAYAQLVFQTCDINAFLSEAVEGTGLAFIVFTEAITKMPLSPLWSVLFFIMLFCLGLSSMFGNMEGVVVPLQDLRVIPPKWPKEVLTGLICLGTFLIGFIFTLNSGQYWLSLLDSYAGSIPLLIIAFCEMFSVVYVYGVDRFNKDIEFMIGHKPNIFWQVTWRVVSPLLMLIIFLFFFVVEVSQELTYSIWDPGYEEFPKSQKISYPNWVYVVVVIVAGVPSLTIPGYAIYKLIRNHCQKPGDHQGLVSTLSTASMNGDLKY
T1 sequence (Q9HBJ8 15-222 partner): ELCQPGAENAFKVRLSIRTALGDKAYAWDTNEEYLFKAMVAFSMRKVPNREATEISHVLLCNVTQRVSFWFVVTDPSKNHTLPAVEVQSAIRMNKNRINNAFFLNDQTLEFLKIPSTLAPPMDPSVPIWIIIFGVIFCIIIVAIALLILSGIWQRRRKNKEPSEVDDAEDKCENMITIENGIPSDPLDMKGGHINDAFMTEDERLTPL
The assay is described as follows: 13C6,15N-isoleucine uptake in CHO cells with doxycycline-inducible expression of human SLC6A19 and TMEM27, RapidFire mass spectrometry (Example B-2). The note with it: read-out: SLC6A19_RapidFire Uptake Assay IC50. It counts as cell-based. As for the experimental part: Assay ready vials of CHO cells with doxycycline inducible expression of human SLC6A19 and TMEM27 were thawed, plated in T175 flasks containing DMEM/F12 media, 10% FBS, 1% Penicillin-Streptomycin, 1× UltraGlutamate, 1 mM Sodium Pyruvate, Sodium Bicarbonate (7.5 mL of 7.5% solution in 500 mL media final), 5 μg/mL Blasticidin, 150 μg/mL Hygromycin B Gold, and 500 μg/mL G418, and incubated (humidified, 37° C. with 5% CO2) for 48 hours. Media was then removed, flasks were washed with 20 mL of DPBS, and 5 mL of TrypLE™ Express was added to each flask to initiate cell dissociation. After 5 minutes, 10 mL of cell culture media was added to each flask and mixed. The cell suspension was collected and centrifuged for 5 minutes at 200×g. The supernatant was removed, and the pellet was resuspended in 10 mL of cell culture media. Resuspended cells were counted using a Vi-Cell. 30 μL/well (20,000 cells/well) of cell suspension was added to Poly-D-Lysine 384-well black/clear plates. Plates were incubated (humidified, 37° C. with 5% CO2) for 24 hours. To induce expression of human SLC6A19 and TMEM27, 10 μL of assay culture media containing 4 μg/mL doxycycline was added to each well. Assay plates were then incubated (humidified, 37° C. with 5% CO2) overnight. After incubation, the media was removed, and wells were washed 3 times with 40 μL of warmed DPBS. Next, 10 μL of warmed assay buffer (137 mM NaCl, 5 mM KCl, 1 mM CaCl2), 1 mM MgCl2, 10 mM HEPES, 10 mM glucose, pH 7.2) was added to each well. 10 μL/well of test compound or positive control compound to define 0% activity (i.e., 100% inhibition), was then added into each well. All compounds were plated in a duplicate 10-point dilution series that consisted of 2-fold dilutions. The plates were incubated (humidified, 37° C. with 5% C2) with compound for 20 minutes. Afterwards, 20 μL/well of 2 mM 13C6,15N-1-isoleucine was added to each well and plates were incubated again (humidified, 37° C. with 5% C02) for another 20 minutes. Assay buffer was then removed, and plates were washed. 70 μL/well of stop solution (75% acetonitrile, 25% HPLC grade water, 250 nM 1-leucine-1-13C (RapidFire standard)) was added to each well. The plates were sealed and then placed in a −20° C. freezer for 20 minutes. The plates were thawed at room temperature for 20 minutes and then centrifuge for 20 minutes at 3000 rpm. Using an ABSciex API4000 mass spectrometer, processed samples were loaded onto the graphitic carbon SPE-column. The time for aspiration, load/wash, elution and re-equilibration time was 600, 1500, 3000 and 500 milliseconds, respectively. Peak areas were calculated using RapidFire Integrator software.
With `O=C(NCc1cc2cc(Cl)c(OCc3ccon3)cc2[nH]1)N1CCCC1` [Compound 112, N-((5-chloro-6-(isoxazol-3-ylmethoxy)-1H-indol-2-yl)methyl)pyrrolidine-1-carboxamide], the IC50 was found to be 193 nM. Under `Cc1c(CNC(=O)C2(C)CC2)[nH]c2cc(OCc3ccon3)ccc12` [Compound 155, N-((6-(isoxazol-3-ylmethoxy)-3-methyl-1H-indol-2-yl)methyl)-1-methylcyclopropane-1-carboxamide] stands 311 nM. Under `Cc1noc(COc2ccc3cc(CNC(=O)C4(C)CC4)[nH]c3c2)n1` [Compound 169, 1-methyl-N-((6-((3-methyl-1,2,4-oxadiazol-5-yl)methoxy)-1H-indol-2-yl)methyl)cyclopropane-1-carboxamide] stands 83 nM. Under `CC1(C(=O)NCc2cc3ccc(OCc4ccncc4)cc3[nH]2)CC1` [Compound 56, 1-methyl-N-((6-(pyridin-4-ylmethoxy)-1H-indol-2-yl)methyl)cyclopropane-1-carboxamide] stands 1950 nM. `CCc1cc(COc2cc3[nH]c(CNC(=O)C4(C)CC4)cc3cc2Cl)no1` [Compound 95]: the IC50 came to 267 nM. Under `Cc1ncc(COc2ccc3cc(CNC(=O)C4(C)CC4)[nH]c3c2)s1` [Compound 178, 1-methyl-N-((6-((2-methylthiazol-5-yl)methoxy)-1H-indol-2-yl)methyl)cyclopropane-1-carboxamide] stands 511 nM. For `CNC(=O)NCc1cc2ccc(OCc3cscn3)cc2[nH]1` [Compound 217, 1-methyl-3-((6-(thiazol-4-ylmethoxy)-1H-indol-2-yl)methyl)urea] the value was 3420 nM; for `Cn1nnc(COc2ccc3cc(CNC(=O)C4(C)CC4)[nH]c3c2)n1` [Compound 174, 1-methyl-N-((6-((2-methyl-2H-tetrazol-5-yl)methoxy)-1H-indol-2-yl)methyl)cyclopropane-1-carboxamide], 2080 nM. Under `CC1(C(=O)NCc2[nH]c3cc(OCc4ccon4)ccc3c2Cl)CC1` [Compound 157, N-((3-chloro-6-(isoxazol-3-ylmethoxy)-1H-indol-2-yl)methyl)-1-methylcyclopropane-1-carboxamide] stands 43 nM; under `Cc1ccc(COc2cc3[nH]c(CNC(=O)C4(C)CC4)cc3cc2Cl)cn1` [Compound 37, N-((5-chloro-6-((6-methylpyridin-3-yl)methoxy)-1H-indol-2-yl)methyl)-1-methylcyclopropane-1-carboxamide], 625 nM; under `CC1(C(=O)NCc2cc3ccc(OCc4cnsn4)cc3[nH]2)CC1` [Compound 166, N-((6-((1,2,5-thiadiazol-3-yl)methoxy)-1H-indol-2-yl)methyl)-1-methylcyclopropane-1-carboxamide], 48 nM. As for `CC1(C(=O)NCc2cc3ccc(OCC4CCCC4)cc3[nH]2)CC1` [Compound 187, N-((6-(cyclopentylmethoxy)-1H-indol-2-yl)methyl)-1-methylcyclopropane-1-carboxamide], the IC50 was determined as 178 nM. Under `CC1(C(=O)NCc2cc3ccc(OCc4ccccc4)cc3[nH]2)CC1` [Compound 5, N-((6-(benzyloxy)-1H-indol-2-yl)methyl)-1-methylcyclopropanecarboxamide] stands 53 nM; under `CNC(=O)NCc1cc2ccc(OCc3ccon3)cc2[nH]1` [Compound 107, 1-((6-(isoxazol-3-ylmethoxy)-1H-indol-2-yl)methyl)-3-methylurea], 5890 nM; under `CNC(=O)NCc1cc2cc(Cl)c(OCc3ccon3)cc2[nH]1` [Compound 110, 1-((5-chloro-6-(isoxazol-3-ylmethoxy)-1H-indol-2-yl)methyl)-3-methylurea], 464 nM.

As to `CC1(C(=O)NCc2cc3ccc(OCc4cccnc4)cc3[nH]2)CC1` [Compound 55, 1-methyl-N-((6-(pyridin-3-ylmethoxy)-1H-indol-2-yl)methyl)cyclopropane-1-carboxamide], the IC50 was determined as 427 nM.

For the compound `CC1(C(=O)NCc2cc3ccc(OCc4ccccn4)cc3[nH]2)CC1` [Compound 54, 1-methyl-N-((6-(pyridin-2-ylmethoxy)-1H-indol-2-yl)methyl)cyclopropane-1-carboxamide], the IC50 was 155 nM. Consider `CCC(=O)NCc1cc2ccc(NCc3ccccc3)cc2[nH]1` [Compound 1, N-((6-(benzylamino)-1H-indol-2-yl)methyl)propionamide], for which the IC50 came out at 5540 nM. `CC1(C(=O)NCc2cc3ccc(OCc4nccs4)cc3[nH]2)CC1` [Compound 43, 1-methyl-N-((6-(thiazol-2-ylmethoxy)-1H-indol-2-yl)methyl)cyclopropane-1-carboxamide]: the half-maximal inhibitory concentration (IC50) stood at 192 nM.

Regarding `CN(Cc1ccccc1)c1ccc2cc(CNC(=O)C3(C)CC3)[nH]c2c1` [Compound 2, N-((6-(benzyl(methyl)amino)-1H-indol-2-yl)methyl)-1-methylcyclopropane-1-carboxamide], the IC50 is 992 nM. Under `CC1(C(=O)NCc2cc3ccc(OCc4cnco4)cc3[nH]2)CC1` [Compound 163, 1-methyl-N-((6-(oxazol-5-ylmethoxy)-1H-indol-2-yl)methyl)cyclopropane-1-carboxamide] stands 920 nM; under `CC1(C(=O)NCc2cc3ccc(OCc4ccc(Cl)cc4)cc3[nH]2)CC1` [Compound 44, N-((6-((4-chlorobenzyl)oxy)-1H-indol-2-yl)methyl)-1-methylcyclopropane-1-carboxamide], 838 nM; under `O=C(NCc1cc2ccc(OCc3cocn3)cc2[nH]1)N1CCCC1` [Compound 105, N-((6-(oxazol-4-ylmethoxy)-1H-indol-2-yl)methyl)pyrrolidine-1-carboxamide], 644 nM. For `CC1(C(=O)NCc2cc3cc(Cl)c(OCc4ccsn4)cc3[nH]2)CC1` [Compound 38, N-((5-chloro-6-(isothiazol-3-ylmethoxy)-1H-indol-2-yl)methyl)-1-methylcyclopropane-1-carboxamide] the value was 44 nM; for `CC1(C(=O)NCc2cc3ccc(OCc4ncccn4)cc3[nH]2)CC1` [Compound 51, 1-methyl-N-((6-(pyrimidin-2-ylmethoxy)-1H-indol-2-yl)methyl)cyclopropane-1-carboxamide], 4390 nM. For `CC1(C(=O)NCc2cc3ccc(OCc4ccon4)cc3[nH]2)CC1` [Compound 20, N-((6-(isoxazol-3-ylmethoxy)-1H-indol-2-yl)methyl)-1-methylcyclopropane-1-carboxamide] the value was 168 nM; for `CC1(C(=O)NCc2cc3ccc(OCC4CCOC4)cc3[nH]2)CC1` (stereo not shown) [Compound 188, 1-methyl-N-((6-((tetrahydrofuran-3-yl)methoxy)-1H-indol-2-yl)methyl)cyclopropane-1-carboxamide], 4450 nM; for `CC1(C(=O)NCc2cc3ccc(OCc4cncs4)cc3[nH]2)CC1` [Compound 48, 1-methyl-N-((6-(thiazol-5-ylmethoxy)-1H-indol-2-yl)methyl)cyclopropane-1-carboxamide], 493 nM.

The values are drawn from US20240199546A1, “INHIBITORS OF SOLUTE CARRIER FAMILY 6A MEMBER 19 (SLC6A19) AND METHODS OF USE THEREOF” (Maze Therapeutics, Inc., priority 2022, published 2024).
